# “And” between values parts separate entries of the source, which are not always exact repeats. Equal values may be shown once. Read-outs that look alike come from different tables or passages of the source.
# How the values were obtained:
# Experiment in all cases: microbe, parasite or virus in culture
# Assay type in all cases: cell-based
# [1] = system: vancomycin / teicoplanin resistant enterococci
# [2] = system: inherently resistant microorganisms; details: for Peptide MIC Alone: Amikacin section; for FIC: peptide + Amikacin
# [3] = system: microorganisms with acquired resistance; details: for Peptide MIC Alone: Gentamicin section; for FIC: peptide + Gentamicin
# bacterial isolates = details: for Peptide MIC Alone: 4. Gentamicin; for FIC: peptide + Gentamicin
# [4] = Enterococcus faecalis, read-out: Amikacin MIC Alone, E. faecalis EFS008
# [5] = Enterococcus faecium, read-out: Amikacin MIC Alone, E. faecium EFM004
# [6] = Pseudomonas aeruginosa, read-out: Amikacin MIC Alone, P. aeruginosa PA022
# [7] = S. maltophilia (strain line r400 not shown)
molecule,measurement,setting,value
NCC[C@H](O)C(=O)N[C@@H]1C[C@H](N)[C@@H](O[C@H]2O[C@H](CN)[C@@H](O)[C@H](O)[C@H]2O)[C@H](O)[C@H]1O[C@H]1O[C@H](CO)[C@@H](O)[C@H](N)[C@H]1O [Amikacin],Amikacin MIC Alone,[1]; E. faecium EFM004,64 µg/mL and >128 µg/mL
same,MIC,[1]; [4],64 µg/mL
same,MIC,[1]; [5],128 µg/mL
same,MIC,"[1]; Enterococcus faecium, read-out: Amikacin MIC Alone, E. faecium EFM020",32 µg/mL
same,MIC,"[2]; Acinetobacter baumannii, read-out: Amikacin MIC + Peptide, A. baumannii, peptide Deber A2KA2",16 µg/mL
same,MIC,"[2]; Acinetobacter baumannii, read-out: Amikacin MIC + Peptide, A. baumannii, peptide MBI 11B16CN",4 µg/mL
same,MIC,"[2]; Acinetobacter baumannii, read-out: Amikacin MIC + Peptide, A. baumannii, peptide MBI 27",16 µg/mL
same,MIC,"[2]; Acinetobacter baumannii, read-out: Amikacin MIC + Peptide, A. baumannii, peptide MBI 29F1",16 µg/mL
same,MIC,"[2]; Acinetobacter baumannii, read-out: Amikacin MIC Alone, A. baumannii",32 µg/mL
same,Amikacin MIC + Peptide,"[2]; B. cepacia, peptide MBI 29A3",32 µg/mL
same,MIC,"[2]; Burkholderia cepacia, read-out: Amikacin MIC + Peptide, B. cepacia, peptide MBI 27",16 µg/mL
same,MIC,"[2]; Burkholderia cepacia, read-out: Amikacin MIC + Peptide, B. cepacia, peptide MBI 29A3",16 µg/mL
same,Amikacin MIC + Peptide,"[2]; S. aureus MRSA, peptide MBI 11B16CN",4 µg/mL
same,Amikacin MIC + Peptide,"[2]; S. maltophilia, peptide MBI 11B16CN",4 µg/mL
same,Amikacin MIC + Peptide,"[2]; S. maltophilia, peptide MBI 21A2",16 µg/mL
same,Amikacin MIC + Peptide,"[2]; S. maltophilia, peptide MBI 26",16 µg/mL
same,Amikacin MIC + Peptide,"[2]; S. maltophilia, peptide MBI 29A3",16 µg/mL
same,MIC,"[2]; Staphylococcus aureus, MRSA, read-out: Amikacin MIC + Peptide, S. aureus MRSA, peptide Deber A2KA2",0.125 µg/mL
same,MIC,"[2]; Staphylococcus aureus, MRSA, read-out: Amikacin MIC + Peptide, S. aureus MRSA, peptide MBI 11B16CN",8 µg/mL
same,MIC,"[2]; Staphylococcus aureus, MRSA, read-out: Amikacin MIC + Peptide, S. aureus MRSA, peptide MBI 21A2",2 µg/mL
same,MIC,"[2]; Staphylococcus aureus, MRSA, read-out: Amikacin MIC + Peptide, S. aureus MRSA, peptide MBI 27",16 µg/mL
same,MIC,"[2]; Staphylococcus aureus, MRSA, read-out: Amikacin MIC + Peptide, S. aureus MRSA, peptide MBI 29F1",16 µg/mL
same,MIC,"[2]; Staphylococcus aureus, MRSA, read-out: Amikacin MIC Alone, S. aureus MRSA",32 µg/mL
same,MIC,"[2]; Stenotrophomonas maltophilia, read-out: Amikacin MIC + Peptide, S. maltophilia, peptide MBI 11B16CN",8 µg/mL
same,MIC,"[2]; Stenotrophomonas maltophilia, read-out: Amikacin MIC + Peptide, S. maltophilia, peptide MBI 21A2",8 µg/mL
same,MIC,"[2]; Stenotrophomonas maltophilia, read-out: Amikacin MIC + Peptide, S. maltophilia, peptide MBI 26",8 µg/mL
same,MIC,"[2]; Stenotrophomonas maltophilia, read-out: Amikacin MIC + Peptide, S. maltophilia, peptide MBI 29A3",8 µg/mL
same,MIC,"[2]; Stenotrophomonas maltophilia, read-out: Amikacin MIC + Peptide, S. maltophilia, peptide MBI 29F1",8 µg/mL
same,MIC,"[2]; Stenotrophomonas maltophilia, read-out: Amikacin MIC Alone, S. maltophilia",128 µg/mL
same,MIC,[3]; [6],64 µg/mL
same,Amikacin MIC Alone,bacterial isolates; A. baumannii ABI001,32 µg/mL
same,MIC,"bacterial isolates; Acinetobacter baumannii, read-out: Amikacin MIC Alone, A. baumannii ABI001",64 µg/mL
same,MIC,"bacterial isolates; Acinetobacter baumannii, read-out: Amikacin MIC Alone, A. baumannii ABI003",16 µg/mL
same,Amikacin MIC Alone,bacterial isolates; B. cepacia BC005,128 µg/mL
same,MIC,"bacterial isolates; Burkholderia cepacia, read-out: Amikacin MIC Alone, B. cepacia BC003",32 µg/mL
same,MIC,"bacterial isolates; Burkholderia cepacia, read-out: Amikacin MIC Alone, B. cepacia BC005",64 µg/mL
same,Amikacin MIC Alone,bacterial isolates; E. faecalis EFS008,64 µg/mL
same,Amikacin MIC Alone,bacterial isolates; E. faecium EFM004,>128 µg/mL
same,MIC,bacterial isolates; [4],32 µg/mL
same,MIC,bacterial isolates; [5],128 µg/mL
same,MIC,"bacterial isolates; Escherichia coli, read-out: Amikacin MIC Alone, E. coli ECO022",16 µg/mL
same,Amikacin MIC Alone,bacterial isolates; P. aeruginosa PA022,128 µg/mL
same,MIC,bacterial isolates; [6],64 µg/mL
same,MIC,"bacterial isolates; Pseudomonas aeruginosa, read-out: Amikacin MIC Alone, P. aeruginosa PA037",16 µg/mL
same,Amikacin MIC Alone,bacterial isolates; S. epidermidis SE003,64 µg/mL
same,Amikacin MIC Alone,bacterial isolates; S. maltophilia SMA018,>128 µg/mL
same,Amikacin MIC Alone,bacterial isolates; S. maltophilia SMA037,64 µg/mL
same,MIC,"bacterial isolates; Staphylococcus aureus, MRSA, read-out: Amikacin MIC Alone, S. aureus SA014 MRSA",32 µg/mL
same,MIC,"bacterial isolates; Staphylococcus aureus, MRSA, read-out: Amikacin MIC Alone, S. aureus SA025 MRSA",32 µg/mL
same,MIC,"bacterial isolates; Staphylococcus epidermidis, read-out: Amikacin MIC Alone, S. epidermidis SE002",64 µg/mL
same,MIC,"bacterial isolates; Staphylococcus epidermidis, read-out: Amikacin MIC Alone, S. epidermidis SE003",32 µg/mL
same,MIC,"bacterial isolates; Stenotrophomonas maltophilia, read-out: Amikacin MIC Alone, S. maltophilia SMA018",128 µg/mL
same,MIC,"bacterial isolates; Stenotrophomonas maltophilia, read-out: Amikacin MIC Alone, S. maltophilia SMA021",128 µg/mL
same,MIC,"bacterial isolates; Stenotrophomonas maltophilia, read-out: Amikacin MIC Alone, S. maltophilia SMA022",> 128 µg/mL
same,MIC,"bacterial isolates; Stenotrophomonas maltophilia, read-out: Amikacin MIC Alone, S. maltophilia SMA036",> 128 µg/mL
same,MIC,"bacterial isolates; Stenotrophomonas maltophilia, read-out: Amikacin MIC Alone, S. maltophilia SMA037",128 µg/mL
same,MIC,"bacterial isolates; Stenotrophomonas maltophilia, read-out: Amikacin MIC Alone, S. maltophilia SMA060",> 128 µg/mL
same,MIC,"bacterial isolates; Stenotrophomonas maltophilia, read-out: Amikacin MIC Alone, S. maltophilia SMA063",> 128 µg/mL
same,MIC,"bacterial isolates; Stenotrophomonas maltophilia, read-out: Amikacin MIC Alone, S. maltophilia SMA064",> 128 µg/mL
"KKAAAKAAAAAKAAWAAKAAAKKKK [Deber A2KA2, reference compound]",Amikacin MIC + Peptide,[1]; E. faecalis EFS008,8 µg/mL
same,Peptide MIC + Amikacin,[1]; E. faecalis EFS008,16 µg/mL
same,Peptide MIC Alone,"[1]; E. faecalis EFS008, Amikacin section",>128 µg/mL
same,FIC,"[1]; peptide + Amikacin, E. faecalis EFS008",0.19
same,Peptide MIC + Amikacin,[2]; A. baumannii,32 µg/mL
same,Peptide MIC Alone,[2]; A. baumannii,>128 µg/mL
same,Peptide MIC + Amikacin,[2]; S. aureus MRSA,8 µg/mL
same,Peptide MIC Alone,[2]; S. aureus MRSA,16 µg/mL
same,FIC,[2]; A. baumannii,0.63
same,FIC,[2]; S. aureus MRSA,0.50
same,Gentamicin MIC + Peptide,[3]; A. calcoaceticus AC001,4 µg/mL
same,Peptide MIC + Gentamicin,[3]; A. calcoaceticus AC001,16 µg/mL
same,Peptide MIC Alone,[3]; A. calcoaceticus AC001,>128 µg/mL
same,Gentamicin MIC + Peptide,[3]; P. aeruginosa PA041,4 µg/mL
same,Peptide MIC + Gentamicin,[3]; P. aeruginosa PA041,64 µg/mL
same,Peptide MIC Alone,[3]; P. aeruginosa PA041,>128 µg/mL
same,FIC,[3]; A. calcoaceticus AC001,0.56
same,FIC,[3]; P. aeruginosa PA041,0.50
same,Peptide MIC Alone,bacterial isolates; A. baumannii ABI001,>128 µg/mL
same,Peptide MIC Alone,bacterial isolates; A. baumannii ABI002,>128 µg/mL
same,Peptide MIC Alone,bacterial isolates; A. calcoaceticus AC001,>128 µg/mL
same,Peptide MIC Alone,bacterial isolates; P. aeruginosa PA022,>128 µg/mL
same,Peptide MIC Alone,bacterial isolates; P. aeruginosa PA041,>128 µg/mL
same,Peptide MIC Alone,bacterial isolates; [7],>128 µg/mL
same,Peptide MIC Alone,bacterial isolates; S. maltophilia SMA017,>128 µg/mL
same,Gentamicin MIC + Peptide,bacterial isolates; A. baumannii ABI001,32 µg/mL
same,Peptide MIC + Gentamicin,bacterial isolates; A. baumannii ABI001,8 µg/mL
same,Gentamicin MIC + Peptide,bacterial isolates; A. baumannii ABI002,32 µg/mL
same,Peptide MIC + Gentamicin,bacterial isolates; A. baumannii ABI002,0.125 µg/mL
same,Gentamicin MIC + Peptide,bacterial isolates; A. calcoaceticus AC001,4 µg/mL
same,Peptide MIC + Gentamicin,bacterial isolates; A. calcoaceticus AC001,16 µg/mL
same,Gentamicin MIC + Peptide,bacterial isolates; P. aeruginosa PA022,16 µg/mL
same,Peptide MIC + Gentamicin,bacterial isolates; P. aeruginosa PA022,4 µg/mL
same,Gentamicin MIC + Peptide,bacterial isolates; P. aeruginosa PA041,8 µg/mL
same,Peptide MIC + Gentamicin,bacterial isolates; P. aeruginosa PA041,0.125 µg/mL
same,Gentamicin MIC + Peptide,bacterial isolates; [7],64 µg/mL
same,Peptide MIC + Gentamicin,bacterial isolates; [7],0.125 µg/mL
same,Gentamicin MIC + Peptide,bacterial isolates; S. maltophilia SMA017,64 µg/mL
same,Peptide MIC + Gentamicin,bacterial isolates; S. maltophilia SMA017,0.125 µg/mL
same,FIC,bacterial isolates; A. baumannii ABI001,0.53
same,FIC,bacterial isolates; A. baumannii ABI002,0.50
same,FIC,bacterial isolates; A. calcoaceticus AC001,0.56
same,FIC,bacterial isolates; P. aeruginosa PA022,0.52
same,FIC,bacterial isolates; P. aeruginosa PA041,0.50
same,FIC,bacterial isolates; [7],0.50
same,FIC,bacterial isolates; S. maltophilia SMA017,0.50
